# Results taken from ChEMBL document CHEMBL3885881, “DrugMatrix”.
# Organism: Rattus norvegicus
# Experiment: DrugMatrix - Regimen: Daily Repeat
# Format: toxicity, organism-based, Sprague-Dawley
# Set-up: regimen Daily Repeat, gender Male, age 6-8 weeks
# Conditions: in vivo, po, route oral GAVAGE, vehicle 100 % WATER; for ABSOLUTE BASOPHIL / ABSOLUTE EOSINOPHIL / ABSOLUTE LYMPHOCYTE / ABSOLUTE MONOCYTE / ABSOLUTE SEGMENTED NEUTROPHIL / BASOPHIL / EOSINOPHIL / ERYTHROCYTE COUNT / HEMATOCRIT / HEMOGLOBIN / LEUKOCYTE COUNT / LYMPHOCYTE / MEAN CORPUSCULAR HEMOGLOBIN / MEAN CORPUSCULAR HEMOGLOBIN CONCENTRATION / MEAN CORPUSCULAR VOLUME / MONOCYTE / NEUTROPHIL / NUCLEATED RED BLOOD CELLS / PLATELET COUNT: tissue Blood; for ALANINE AMINOTRANSFERASE / ALBUMIN / ALKALINE PHOSPHATASE / ASPARTATE AMINOTRANSFERASE / BLOOD UREA NITROGEN / CARBON DIOXIDE / CHLORIDE / CHOLESTEROL / CREATINE PHOSPHOKINASE / CREATININE / GLUCOSE / LACTATE DEHYDROGENASE / LIPASE / PHOSPHORUS / POTASSIUM / SODIUM / TOTAL BILIRUBIN / TOTAL PROTEIN / URIC ACID: tissue Plasma
# [1] = 0 mg/kg, 72 h, dose level Control, time 3 day
# [2] = 0 mg/kg, 120 h, dose level Control, time 5 day
# [3] = 50 mg/kg, 72 h, dose level Low, time 3 day
# [4] = 50 mg/kg, 120 h, dose level Low, time 5 day
structure (smiles),measurement,setting,value
CC[C@H]1OC(=O)[C@H](C)[C@@H](O[C@H]2C[C@@](C)(OC)[C@@H](O)[C@H](C)O2)[C@H](C)[C@@H](O[C@@H]2O[C@H](C)C[C@H](N(C)C)[C@H]2O)[C@](C)(O)C[C@@H](C)CN(C)[C@H](C)[C@@H](O)[C@]1(C)O [AZITHROMYCIN],ABSOLUTE BASOPHIL,[1],0 CELLS/uL
same,ABSOLUTE EOSINOPHIL,[1],33.67 CELLS/uL
same,ABSOLUTE LYMPHOCYTE,[1],11257.17 CELLS/uL
same,ABSOLUTE MONOCYTE,[1],72.17 CELLS/uL
same,ABSOLUTE SEGMENTED NEUTROPHIL,[1],1220.33 CELLS/uL
same,BASOPHIL,[1],0%
same,EOSINOPHIL,[1],0.33%
same,ERYTHROCYTE COUNT,[1],5 x10E6/uL
same,HEMATOCRIT,[1],32.62%
same,HEMOGLOBIN,[1],12.83 G/DL
same,LEUKOCYTE COUNT,[1],12.58 x10E3/uL
same,LYMPHOCYTE,[1],89%
same,MEAN CORPUSCULAR HEMOGLOBIN,[1],25.67 pg
same,MEAN CORPUSCULAR HEMOGLOBIN CONCENTRATION,[1],39.35 G/DL
same,MEAN CORPUSCULAR VOLUME,[1],65.23 fL
same,MONOCYTE,[1],0.67%
same,NEUTROPHIL,[1],10%
same,NUCLEATED RED BLOOD CELLS,[1],0 /100WBC
same,PLATELET COUNT,[1],1162.5 x10E3/uL
same,ALANINE AMINOTRANSFERASE,[1],45.33 u/L
same,ALBUMIN,[1],3.95 G/DL
same,ALKALINE PHOSPHATASE,[1],356.17 u/L
same,ASPARTATE AMINOTRANSFERASE,[1],81 u/L
same,BLOOD UREA NITROGEN,[1],11 mg/dL
same,CARBON DIOXIDE,[1],29.83 mmol/L
same,CHLORIDE,[1],97.8 MEQ/L
same,CHOLESTEROL,[1],65.17 mg/dL
same,CREATINE PHOSPHOKINASE,[1],211.33 u/L
same,CREATININE,[1],0.11 mg/dL
same,GLUCOSE,[1],164.67 mg/dL
same,LACTATE DEHYDROGENASE,[1],143.17 u/L
same,LIPASE,[1],10.17 u/L
same,PHOSPHORUS,[1],10.88 mg/dL
same,POTASSIUM,[1],6.08 MEQ/L
same,SODIUM,[1],141.54 MEQ/L
same,TOTAL BILIRUBIN,[1],0.23 mg/dL
same,TOTAL PROTEIN,[1],5.65 G/DL
same,URIC ACID,[1],1 mg/dL
same,ABSOLUTE BASOPHIL,[2],0 CELLS/uL
same,ABSOLUTE EOSINOPHIL,[2],48.67 CELLS/uL
same,ABSOLUTE LYMPHOCYTE,[2],9267.83 CELLS/uL
same,ABSOLUTE MONOCYTE,[2],194.33 CELLS/uL
same,ABSOLUTE SEGMENTED NEUTROPHIL,[2],572.5 CELLS/uL
same,BASOPHIL,[2],0%
same,EOSINOPHIL,[2],0.33%
same,ERYTHROCYTE COUNT,[2],5.41 x10E6/uL
same,HEMATOCRIT,[2],36.17%
same,HEMOGLOBIN,[2],13.9 G/DL
same,LEUKOCYTE COUNT,[2],10.08 x10E3/uL
same,LYMPHOCYTE,[2],92.17%
same,MEAN CORPUSCULAR HEMOGLOBIN,[2],25.73 pg
same,MEAN CORPUSCULAR HEMOGLOBIN CONCENTRATION,[2],38.45 G/DL
same,MEAN CORPUSCULAR VOLUME,[2],66.97 fL
same,MONOCYTE,[2],1.83%
same,NEUTROPHIL,[2],5.67%
same,NUCLEATED RED BLOOD CELLS,[2],0.33 /100WBC
same,PLATELET COUNT,[2],1122.33 x10E3/uL
same,ALANINE AMINOTRANSFERASE,[2],52.83 u/L
same,ALBUMIN,[2],4.12 G/DL
same,ALKALINE PHOSPHATASE,[2],367.33 u/L
same,ASPARTATE AMINOTRANSFERASE,[2],88 u/L
same,BLOOD UREA NITROGEN,[2],12.67 mg/dL
same,CARBON DIOXIDE,[2],33.67 mmol/L
same,CHLORIDE,[2],97 MEQ/L
same,CHOLESTEROL,[2],67.5 mg/dL
same,CREATINE PHOSPHOKINASE,[2],358.67 u/L
same,CREATININE,[2],0.14 mg/dL
same,GLUCOSE,[2],152.33 mg/dL
same,LACTATE DEHYDROGENASE,[2],180 u/L
same,LIPASE,[2],10.5 u/L
same,PHOSPHORUS,[2],10.63 mg/dL
same,POTASSIUM,[2],5.99 MEQ/L
same,SODIUM,[2],141.85 MEQ/L
same,TOTAL BILIRUBIN,[2],0.2 mg/dL
same,TOTAL PROTEIN,[2],6.18 G/DL
same,URIC ACID,[2],0.52 mg/dL
same,ABSOLUTE BASOPHIL,[3],0 CELLS/uL
same,ABSOLUTE EOSINOPHIL,[3],0 CELLS/uL
same,ABSOLUTE LYMPHOCYTE,[3],14976.33 CELLS/uL
same,ABSOLUTE MONOCYTE,[3],50 CELLS/uL
same,ABSOLUTE SEGMENTED NEUTROPHIL,[3],1373.67 CELLS/uL
same,BASOPHIL,[3],0%
same,EOSINOPHIL,[3],0%
same,ERYTHROCYTE COUNT,[3],5.24 x10E6/uL
same,HEMATOCRIT,[3],34.53%
same,HEMOGLOBIN,[3],13.33 G/DL
same,LEUKOCYTE COUNT,[3],16.4 x10E3/uL
same,LYMPHOCYTE,[3],91.33%
same,MEAN CORPUSCULAR HEMOGLOBIN,[3],25.5 pg
same,MEAN CORPUSCULAR HEMOGLOBIN CONCENTRATION,[3],38.67 G/DL
same,MEAN CORPUSCULAR VOLUME,[3],65.87 fL
same,MONOCYTE,[3],0.33%
same,NEUTROPHIL,[3],8.33%
same,NUCLEATED RED BLOOD CELLS,[3],0.33 /100WBC
same,PLATELET COUNT,[3],1013.33 x10E3/uL
same,ALANINE AMINOTRANSFERASE,[3],52.67 u/L
same,ALBUMIN,[3],3.97 G/DL
same,ALKALINE PHOSPHATASE,[3],324 u/L
same,ASPARTATE AMINOTRANSFERASE,[3],77 u/L
same,BLOOD UREA NITROGEN,[3],13 mg/dL
same,CARBON DIOXIDE,[3],30 mmol/L
same,CHLORIDE,[3],98.33 MEQ/L
same,CHOLESTEROL,[3],80.67 mg/dL
same,CREATINE PHOSPHOKINASE,[3],196 u/L
same,CREATININE,[3],0.11 mg/dL
same,GLUCOSE,[3],165 mg/dL
same,LACTATE DEHYDROGENASE,[3],154 u/L
same,LIPASE,[3],9.33 u/L
same,PHOSPHORUS,[3],11.37 mg/dL
same,POTASSIUM,[3],6.42 MEQ/L
same,SODIUM,[3],143.1 MEQ/L
same,TOTAL BILIRUBIN,[3],0.2 mg/dL
same,TOTAL PROTEIN,[3],5.87 G/DL
same,URIC ACID,[3],0.83 mg/dL
same,ABSOLUTE BASOPHIL,[4],0 CELLS/uL
same,ABSOLUTE EOSINOPHIL,[4],59.33 CELLS/uL
same,ABSOLUTE LYMPHOCYTE,[4],8956 CELLS/uL
same,ABSOLUTE MONOCYTE,[4],157 CELLS/uL
same,ABSOLUTE SEGMENTED NEUTROPHIL,[4],561 CELLS/uL
same,BASOPHIL,[4],0%
same,EOSINOPHIL,[4],0.67%
same,ERYTHROCYTE COUNT,[4],5.03 x10E6/uL
same,HEMATOCRIT,[4],33.47%
same,HEMOGLOBIN,[4],12.9 G/DL
same,LEUKOCYTE COUNT,[4],9.73 x10E3/uL
same,LYMPHOCYTE,[4],91.67%
same,MEAN CORPUSCULAR HEMOGLOBIN,[4],25.73 pg
same,MEAN CORPUSCULAR HEMOGLOBIN CONCENTRATION,[4],38.57 G/DL
same,MEAN CORPUSCULAR VOLUME,[4],66.63 fL
same,MONOCYTE,[4],1.67%
same,NEUTROPHIL,[4],6%
same,NUCLEATED RED BLOOD CELLS,[4],0 /100WBC
same,PLATELET COUNT,[4],1159 x10E3/uL
same,ALANINE AMINOTRANSFERASE,[4],55.33 u/L
same,ALBUMIN,[4],3.87 G/DL
same,ALKALINE PHOSPHATASE,[4],346 u/L
same,ASPARTATE AMINOTRANSFERASE,[4],85.33 u/L
same,BLOOD UREA NITROGEN,[4],13.33 mg/dL
same,CARBON DIOXIDE,[4],33.67 mmol/L
same,CHLORIDE,[4],98.33 MEQ/L
same,CHOLESTEROL,[4],66.33 mg/dL
same,CREATINE PHOSPHOKINASE,[4],375.33 u/L
same,CREATININE,[4],0.18 mg/dL
same,GLUCOSE,[4],143.67 mg/dL
same,LACTATE DEHYDROGENASE,[4],176.67 u/L
same,LIPASE,[4],12.33 u/L
same,PHOSPHORUS,[4],11.3 mg/dL
same,POTASSIUM,[4],5.91 MEQ/L
same,SODIUM,[4],142.67 MEQ/L
same,TOTAL BILIRUBIN,[4],0.13 mg/dL
same,TOTAL PROTEIN,[4],5.9 G/DL
same,URIC ACID,[4],0.37 mg/dL
